This passage reports Bliss excess results from the supplement of paper PMC11061612.

What all share (experiment): Bliss excess, mean over the matrix (fraction); higher = more synergy
The test system of one experiment is GI-ME-N (Neuroblastoma). In a few lines:
(§1)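 Bliss excess equals the observed combination effect minus the expected value EA + EB − EA·EB, where EA and EB are the effects of each agent alone. Combination Emax is the second-highest inhibition within the matrix. Inhibition was scaled from CellTiter-Glo 2.0 luminescence, with 0 set by vehicle wells and 1 by blank wells, after 72 hours of two-drug dosing of cells plated in 1536-well plates.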

The test system of a further experiment is ARH-77 (Non-Cancerous). In short, it runs like this:
as §1

A further experiment concerns U-2-OS (Osteosarcoma). In short, it runs like this: as §1
Experiment [1] concerns NCI-H1693 (Lung Adenocarcinoma). In a few lines:
as §1

A further experiment has as its system 8-MG-BA (Glioblastoma). In a few lines: as §1
For experiment [2], the system named is PANC-10-05 (Pancreatic Carcinoma). In a few lines: as §1

As to `COc1nnc2ccc(N3CCC(c4ccc(OCCN5CCN(C)C(=O)[C@H]5C)cc4)CC3)nn12` [AZD5153] + CC1(C)CCC(CN2CCN(c3ccc(C(=O)NS(=O)(=O)c4ccc(NCC5CCOCC5)c([N+](=O)[O-])c4)c(Oc4cnc5[nH]ccc5c4)c3)CC2)=C(c2ccc(Cl)cc2)C1 [Venetoclax] (first compound max 1 µM, 7x7, partner max 1 µM), the Bliss excess with GI-ME-N (Neuroblastoma) is -0.0955; with ARH-77 (Non-Cancerous), -0.0033; in the experiment with U-2-OS (Osteosarcoma), -0.0424; in experiment [1], -0.0464; in the experiment on 8-MG-BA (Glioblastoma), -0.0116; in experiment [2], -0.119.
Turning to `COc1nnc2ccc(N3CCC(c4ccc(OCCN5CCN(C)C(=O)[C@H]5C)cc4)CC3)nn12` [AZD5153] + CCN(CCO)CCCOc1ccc2c(Nc3cc(CC(=O)Nc4cccc(F)c4)[nH]n3)ncnc2c1 [AZD2811] (first compound max 1 µM, 7x7, partner max 1 µM), the Bliss excess is 0.0022 in the experiment with GI-ME-N (Neuroblastoma); -0.0471 in the experiment with ARH-77 (Non-Cancerous); -0.0044 with U-2-OS (Osteosarcoma); -0.098 in experiment [1]; 0.0121 in the experiment on 8-MG-BA (Glioblastoma); -0.0713 in experiment [2].
For the molecule `COc1nnc2ccc(N3CCC(c4ccc(OCCN5CCN(C)C(=O)[C@H]5C)cc4)CC3)nn12` [AZD5153] + C[C@@H]1COCCN1C2=NC(=NC(=C2)C3(CC3)[S@](=N)(=O)C)C4=C5C=CNC5=NC=C4 [AZD6738] (first compound max 1 µM, 7x7, partner max 10 µM), the Bliss excess in the experiment on GI-ME-N (Neuroblastoma) was 0.0858; in the experiment on ARH-77 (Non-Cancerous), -0.0293; with U-2-OS (Osteosarcoma), 0.0409; in experiment [1], -0.0383; with 8-MG-BA (Glioblastoma), -0.0849; in experiment [2], -0.0928.
In the case of `COc1nnc2ccc(N3CCC(c4ccc(OCCN5CCN(C)C(=O)[C@H]5C)cc4)CC3)nn12` [AZD5153] + Cc1c2c(nn1C)CSCc1cc(n(C)n1)CSc1cc(c3ccccc3c1)OCCCc1c(C(=O)O)n(C)c3c-2c(Cl)ccc13 [AZD5991] (first compound max 1 µM, 7x7, partner max 1 µM), the Bliss excess in the experiment with GI-ME-N (Neuroblastoma) was -0.0142; in the experiment on ARH-77 (Non-Cancerous), -0.04; in the experiment with U-2-OS (Osteosarcoma), 0.0074; in experiment [1], -0.0418; in the experiment on 8-MG-BA (Glioblastoma) it was -0.0367; in experiment [2] it was -0.0759.
For the molecule `COc1nnc2ccc(N3CCC(c4ccc(OCCN5CCN(C)C(=O)[C@H]5C)cc4)CC3)nn12` [AZD5153] + Cn1cnc2c(F)c(Nc3ccc(Br)cc3Cl)c(C(=O)NOCCO)cc21 [Selumetinib] (first compound max 1 µM, 7x7, partner max 10 µM), the Bliss excess in the experiment on GI-ME-N (Neuroblastoma) was -0.0636; with ARH-77 (Non-Cancerous), -0.0251; in the experiment with U-2-OS (Osteosarcoma), -0.0291; in experiment [1], 0.0093; in the experiment with 8-MG-BA (Glioblastoma) it was -0.007; in experiment [2], -0.0736.
For `Cc1c2c(nn1C)CSCc1cc(n(C)n1)CSc1cc(c3ccccc3c1)OCCCc1c(C(=O)O)n(C)c3c-2c(Cl)ccc13` [AZD5991] + C1CN(CCC1(C(=O)N[C@@H](CCO)C2=CC=C(C=C2)Cl)N)C3=NC=NC4=C3C=CN4 [Capivasertib] (first compound max 1 µM, 7x7, partner max 3 µM), the Bliss excess with GI-ME-N (Neuroblastoma) was -0.0245; in the experiment on ARH-77 (Non-Cancerous) it was -0.037; with U-2-OS (Osteosarcoma), 0.0114; in experiment [1] it was -0.0294; in the experiment on 8-MG-BA (Glioblastoma), 0.0821; in experiment [2], 0.0422.
Turning to `Cc1c2c(nn1C)CSCc1cc(n(C)n1)CSc1cc(c3ccccc3c1)OCCCc1c(C(=O)O)n(C)c3c-2c(Cl)ccc13` [AZD5991] + C=CCn1c(=O)c2cnc(Nc3ccc(N4CCN(C)CC4)cc3)nc2n1-c1cccc(C(C)(C)O)n1 [AZD1775] (first compound max 1 µM, partner max 1 µM), the Bliss excess in the experiment on GI-ME-N (Neuroblastoma) was 0.0646; in the experiment with ARH-77 (Non-Cancerous) it was -0.0418; with U-2-OS (Osteosarcoma), 0.0183; in experiment [1] it was 0.0581; in the experiment with 8-MG-BA (Glioblastoma), -0.0123; in experiment [2], -0.0551.
Turning to `Cc1c2c(nn1C)CSCc1cc(n(C)n1)CSc1cc(c3ccccc3c1)OCCCc1c(C(=O)O)n(C)c3c-2c(Cl)ccc13` [AZD5991] + CC1(C)CCC(CN2CCN(c3ccc(C(=O)NS(=O)(=O)c4ccc(NCC5CCOCC5)c([N+](=O)[O-])c4)c(Oc4cnc5[nH]ccc5c4)c3)CC2)=C(c2ccc(Cl)cc2)C1 [Venetoclax] (first compound max 1 µM, 7x7, partner max 1 µM), the Bliss excess with GI-ME-N (Neuroblastoma) is -0.0408; with ARH-77 (Non-Cancerous), 0.0087; with U-2-OS (Osteosarcoma), -0.0011; in experiment [1], -0.025; with 8-MG-BA (Glioblastoma), 0.048; in experiment [2], -0.0506.
With `Cc1c2c(nn1C)CSCc1cc(n(C)n1)CSc1cc(c3ccccc3c1)OCCCc1c(C(=O)O)n(C)c3c-2c(Cl)ccc13` [AZD5991] + CCN(CCO)CCCOc1ccc2c(Nc3cc(CC(=O)Nc4cccc(F)c4)[nH]n3)ncnc2c1 [AZD2811] (first compound max 1 µM, 7x7, partner max 1 µM), the Bliss excess in the experiment with GI-ME-N (Neuroblastoma) is 0.0116; with ARH-77 (Non-Cancerous) it was -0.0146; in the experiment with U-2-OS (Osteosarcoma) it was 0.0091; in experiment [1] it was 0.0102; with 8-MG-BA (Glioblastoma) it was 0.114; in experiment [2], -0.0242.
For the molecule `Cc1c2c(nn1C)CSCc1cc(n(C)n1)CSc1cc(c3ccccc3c1)OCCCc1c(C(=O)O)n(C)c3c-2c(Cl)ccc13` [AZD5991] + CN(C)CCCOc1ccc(-c2ccc3ncc4c(c3c2)n(C2CCOCC2)c(=O)n4C)cn1 [AZD0156] (first compound max 1 µM, 7x7, partner max 1 µM), the Bliss excess is -0.04 in the experiment on GI-ME-N (Neuroblastoma); -0.0423 in the experiment on ARH-77 (Non-Cancerous); 0.0132 in the experiment with U-2-OS (Osteosarcoma); -0.0254 in experiment [1]; 0.0044 in the experiment with 8-MG-BA (Glioblastoma); -0.0048 in experiment [2].
On to `Cc1c2c(nn1C)CSCc1cc(n(C)n1)CSc1cc(c3ccccc3c1)OCCCc1c(C(=O)O)n(C)c3c-2c(Cl)ccc13` [AZD5991] + C[C@@H]1COCCN1C2=NC(=NC(=C2)C3(CC3)[S@](=N)(=O)C)C4=C5C=CNC5=NC=C4 [AZD6738] (first compound max 1 µM, 7x7, partner max 10 µM), for which the Bliss excess with GI-ME-N (Neuroblastoma) is 0.0481; with ARH-77 (Non-Cancerous), -0.014; in the experiment with U-2-OS (Osteosarcoma) it was 0.0276; in experiment [1] it was 0.0316; with 8-MG-BA (Glioblastoma) it was 0.0326; in experiment [2] it was 0.0415.
